Data: ChEMBL document CHEMBL3885881, “DrugMatrix”

Species: Rattus norvegicus
Assay: DrugMatrix - Regimen: Daily Repeat
Assay type: toxicity, organism-based, Sprague-Dawley
Set-up: regimen Daily Repeat, gender Male, age 6-8 weeks
Conditions: in vivo, po, route oral GAVAGE, […]; for ABSOLUTE BASOPHIL / ABSOLUTE EOSINOPHIL / ABSOLUTE LYMPHOCYTE / ABSOLUTE MONOCYTE / ABSOLUTE SEGMENTED NEUTROPHIL / BASOPHIL / EOSINOPHIL / ERYTHROCYTE COUNT / HEMATOCRIT / HEMOGLOBIN / LEUKOCYTE COUNT / LYMPHOCYTE / MEAN CORPUSCULAR HEMOGLOBIN / MEAN CORPUSCULAR HEMOGLOBIN CONCENTRATION / MONOCYTE / NEUTROPHIL / NUCLEATED RED BLOOD CELLS / PLATELET COUNT: tissue Blood; for ALANINE AMINOTRANSFERASE / ALBUMIN / ALKALINE PHOSPHATASE / ASPARTATE AMINOTRANSFERASE / BLOOD UREA NITROGEN / CARBON DIOXIDE / CHLORIDE / CHOLESTEROL / CREATINE PHOSPHOKINASE / CREATININE / GLUCOSE / LACTATE DEHYDROGENASE / LIPASE / PHOSPHORUS / POTASSIUM / SODIUM / TOTAL BILIRUBIN / TOTAL PROTEIN / URIC ACID: tissue Plasma
[1] = 0 mg/kg, 72 h, dose level Control, time 3 day
[2] = 0 mg/kg, 120 h, dose level Control, time 5 day
[3] = 54 mg/kg, 72 h, dose level Low, time 3 day
[4] = 54 mg/kg, 120 h, dose level Low, time 5 day

Structure (SMILES): CC(C)Cc1ccc(C(C)C(=O)O)cc1 (configuration not stated) [IBUPROFEN]
- ABSOLUTE BASOPHIL [1]: 0 CELLS/uL
- ABSOLUTE EOSINOPHIL [1]: 0 CELLS/uL
- ABSOLUTE LYMPHOCYTE [1]: 7601 CELLS/uL
- ABSOLUTE MONOCYTE [1]: 354.33 CELLS/uL
- ABSOLUTE SEGMENTED NEUTROPHIL [1]: 744.67 CELLS/uL
- BASOPHIL [1]: 0%
- EOSINOPHIL [1]: 0%
- ERYTHROCYTE COUNT [1]: 5.03 x10E6/uL
- HEMATOCRIT [1]: 33.7%
- HEMOGLOBIN [1]: 13.43 G/DL
- LEUKOCYTE COUNT [1]: 8.7 x10E3/uL
- LYMPHOCYTE [1]: 86.33%
- MEAN CORPUSCULAR HEMOGLOBIN [1]: 26.7 pg
- MEAN CORPUSCULAR HEMOGLOBIN CONCENTRATION [1]: 39.83 G/DL
- MONOCYTE [1]: 4.67%
- NEUTROPHIL [1]: 9%
- NUCLEATED RED BLOOD CELLS [1]: 0 /100WBC
- PLATELET COUNT [1]: 1151 x10E3/uL
- ALANINE AMINOTRANSFERASE [1]: 97.67 u/L
- ALBUMIN [1]: 4.07 G/DL
- ALKALINE PHOSPHATASE [1]: 607.67 u/L
- ASPARTATE AMINOTRANSFERASE [1]: 101 u/L
- BLOOD UREA NITROGEN [1]: 13.33 mg/dL
- CARBON DIOXIDE [1]: 36 mmol/L
- CHLORIDE [1]: 99.67 MEQ/L
- CHOLESTEROL [1]: 75.67 mg/dL
- CREATINE PHOSPHOKINASE [1]: 279.67 u/L
- CREATININE [1]: 0.16 mg/dL
- GLUCOSE [1]: 164 mg/dL
- LACTATE DEHYDROGENASE [1]: 115 u/L
- LIPASE [1]: 12.67 u/L
- PHOSPHORUS [1]: 8.77 mg/dL
- POTASSIUM [1]: 5.79 MEQ/L
- SODIUM [1]: 142.83 MEQ/L
- TOTAL BILIRUBIN [1]: 0.27 mg/dL
- TOTAL PROTEIN [1]: 5.8 G/DL
- URIC ACID [1]: 0.67 mg/dL
- ABSOLUTE BASOPHIL [2]: 0 CELLS/uL
- ABSOLUTE EOSINOPHIL [2]: 0 CELLS/uL
- ABSOLUTE LYMPHOCYTE [2]: 4426.33 CELLS/uL
- ABSOLUTE MONOCYTE [2]: 102.67 CELLS/uL
- ABSOLUTE SEGMENTED NEUTROPHIL [2]: 337.67 CELLS/uL
- BASOPHIL [2]: 0%
- EOSINOPHIL [2]: 0%
- ERYTHROCYTE COUNT [2]: 5.31 x10E6/uL
- HEMATOCRIT [2]: 32.5%
- HEMOGLOBIN [2]: 13.17 G/DL
- LEUKOCYTE COUNT [2]: 4.87 x10E3/uL
- LYMPHOCYTE [2]: 90.33%
- MEAN CORPUSCULAR HEMOGLOBIN [2]: 24.93 pg
- MEAN CORPUSCULAR HEMOGLOBIN CONCENTRATION [2]: 40.67 G/DL
- MONOCYTE [2]: 2.33%
- NEUTROPHIL [2]: 7.33%
- NUCLEATED RED BLOOD CELLS [2]: 0.33 /100WBC
- PLATELET COUNT [2]: 848.33 x10E3/uL
- ALANINE AMINOTRANSFERASE [2]: 59.67 u/L
- ALBUMIN [2]: 3.87 G/DL
- ALKALINE PHOSPHATASE [2]: 452 u/L
- ASPARTATE AMINOTRANSFERASE [2]: 81.33 u/L
- BLOOD UREA NITROGEN [2]: 13.67 mg/dL
- CARBON DIOXIDE [2]: 26.33 mmol/L
- CHLORIDE [2]: 103.67 MEQ/L
- CHOLESTEROL [2]: 65.67 mg/dL
- CREATINE PHOSPHOKINASE [2]: 355.33 u/L
- CREATININE [2]: 0.14 mg/dL
- GLUCOSE [2]: 171.33 mg/dL
- LACTATE DEHYDROGENASE [2]: 118 u/L
- LIPASE [2]: 11.33 u/L
- PHOSPHORUS [2]: 11.13 mg/dL
- POTASSIUM [2]: 5.18 MEQ/L
- SODIUM [2]: 143.17 MEQ/L
- TOTAL BILIRUBIN [2]: 0.2 mg/dL
- TOTAL PROTEIN [2]: 5.87 G/DL
- URIC ACID [2]: 0.63 mg/dL
- ABSOLUTE BASOPHIL [3]: 0 CELLS/uL
- ABSOLUTE EOSINOPHIL [3]: 0 CELLS/uL
- ABSOLUTE LYMPHOCYTE [3]: 9143 CELLS/uL
- ABSOLUTE MONOCYTE [3]: 146.33 CELLS/uL
- ABSOLUTE SEGMENTED NEUTROPHIL [3]: 1110.67 CELLS/uL
- BASOPHIL [3]: 0%
- EOSINOPHIL [3]: 0%
- ERYTHROCYTE COUNT [3]: 5.12 x10E6/uL
- HEMATOCRIT [3]: 32.67%
- HEMOGLOBIN [3]: 12.97 G/DL
- LEUKOCYTE COUNT [3]: 10.4 x10E3/uL
- LYMPHOCYTE [3]: 88%
- MEAN CORPUSCULAR HEMOGLOBIN [3]: 25.37 pg
- MEAN CORPUSCULAR HEMOGLOBIN CONCENTRATION [3]: 39.7 G/DL
- MONOCYTE [3]: 1.33%
- NEUTROPHIL [3]: 10.67%
- NUCLEATED RED BLOOD CELLS [3]: 0 /100WBC
- PLATELET COUNT [3]: 1145.67 x10E3/uL
- ALANINE AMINOTRANSFERASE [3]: 89.33 u/L
- ALBUMIN [3]: 4 G/DL
- ALKALINE PHOSPHATASE [3]: 470.33 u/L
- ASPARTATE AMINOTRANSFERASE [3]: 89.33 u/L
- BLOOD UREA NITROGEN [3]: 14.33 mg/dL
- CARBON DIOXIDE [3]: 40.33 mmol/L
- CHLORIDE [3]: 98 MEQ/L
- CHOLESTEROL [3]: 76.67 mg/dL
- CREATINE PHOSPHOKINASE [3]: 208.67 u/L
- CREATININE [3]: 0.13 mg/dL
- GLUCOSE [3]: 160.67 mg/dL
- LACTATE DEHYDROGENASE [3]: 55 u/L
- LIPASE [3]: 10.67 u/L
- PHOSPHORUS [3]: 9.53 mg/dL
- POTASSIUM [3]: 5.26 MEQ/L
- SODIUM [3]: 143.43 MEQ/L
- TOTAL BILIRUBIN [3]: 0.2 mg/dL
- TOTAL PROTEIN [3]: 5.9 G/DL
- URIC ACID [3]: 0.37 mg/dL
- ABSOLUTE BASOPHIL [4]: 0 CELLS/uL
- ABSOLUTE EOSINOPHIL [4]: 0 CELLS/uL
- ABSOLUTE LYMPHOCYTE [4]: 9058.67 CELLS/uL
- ABSOLUTE MONOCYTE [4]: 185 CELLS/uL
- ABSOLUTE SEGMENTED NEUTROPHIL [4]: 289.67 CELLS/uL
- BASOPHIL [4]: 0%
- EOSINOPHIL [4]: 0%
- ERYTHROCYTE COUNT [4]: 5.22 x10E6/uL
- HEMATOCRIT [4]: 32.87%
- HEMOGLOBIN [4]: 13 G/DL
- LEUKOCYTE COUNT [4]: 9.53 x10E3/uL
- LYMPHOCYTE [4]: 95.33%
- MEAN CORPUSCULAR HEMOGLOBIN [4]: 24.87 pg
- MEAN CORPUSCULAR HEMOGLOBIN CONCENTRATION [4]: 39.57 G/DL
- MONOCYTE [4]: 1.67%
- NEUTROPHIL [4]: 3%
- NUCLEATED RED BLOOD CELLS [4]: 0 /100WBC
- PLATELET COUNT [4]: 1110.33 x10E3/uL
- ALANINE AMINOTRANSFERASE [4]: 65.67 u/L
- ALBUMIN [4]: 3.9 G/DL
- ALKALINE PHOSPHATASE [4]: 301 u/L
- ASPARTATE AMINOTRANSFERASE [4]: 84.67 u/L
- BLOOD UREA NITROGEN [4]: 12.67 mg/dL
- CARBON DIOXIDE [4]: 28.67 mmol/L
- CHLORIDE [4]: 103.67 MEQ/L
- CHOLESTEROL [4]: 69.67 mg/dL
- CREATINE PHOSPHOKINASE [4]: 213.67 u/L
- CREATININE [4]: 0.23 mg/dL
- GLUCOSE [4]: 164 mg/dL
- LIPASE [4]: 11 u/L
- PHOSPHORUS [4]: 11.1 mg/dL
- POTASSIUM [4]: 5.49 MEQ/L
- SODIUM [4]: 144.2 MEQ/L
- TOTAL BILIRUBIN [4]: 0.13 mg/dL
- TOTAL PROTEIN [4]: 5.87 G/DL
- URIC ACID [4]: 0.57 mg/dL
